What all share (format): in vivo
Assay [1] deals with Chenopodium album. Put plainly: Test Example 4: herbicidal effect test by treatment of leave and stem in dry field farming (seven days after seeding). Conditions: 120 g/10a active ingredient; emulsion sprayed seven days after seeding; evaluated 14 days after treatment. Put shortly:
(§1)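 Duplicate pots were scored 14 days post-spray by dry weight, herbicidal rate = {1 − treated/untreated average dry weight} × 100. The water-diluted emulsion, equivalent to 120 g active ingredient per 10 ares in 100 L, was applied seven days after sowing 20 seeds each into the upper 1 cm of alluvial soil.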

Assay [2] concerns southern crabgrass. The description is as above. Conditions: 120 g/10a active ingredient; emulsion sprayed seven days after seeding; evaluated 14 days after treatment. In short, it runs like this:
as §1

The subject of assay [3] is Echinochloa crus-galli. The assay is described as above. Conditions: 120 g/10a active ingredient; emulsion sprayed seven days after seeding; evaluated 14 days after treatment. In short, it runs like this:
as §1

In assay [4] the test system is Amaranthus viridis. Described as above. Conditions: 120 g/10a active ingredient; emulsion sprayed seven days after seeding; evaluated 14 days after treatment. In short, it runs like this:
as §1

The subject of assay [5] is Chenopodium album. Put plainly: Test Example 3: herbicidal effect test by treatment of dry field farming soil (one day after seeding). Conditions: 120 g/10a active ingredient, evaluated 14 days after treatment. Put shortly: (§2)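 Compound emulsions are sprayed on the soil surface one day after sowing (120 g a.i. per 10 ares) before weeds emerge. Effect is expressed as percent dry-weight reduction versus untreated controls 14 days post-treatment.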

The subject of assay [6] is southern crabgrass. The description is as above. Conditions: 120 g/10a active ingredient, evaluated 14 days after treatment. Put shortly: as §2
Assay [7] deals with Echinochloa crus-galli. The assay is described as above. Conditions: 120 g/10a active ingredient, evaluated 14 days after treatment. In short, it runs like this: as §2
Assay [8] deals with Amaranthus viridis. The description is as above. Conditions: 120 g/10a active ingredient, evaluated 14 days after treatment. In short, it runs like this:
as §2

For assay [9], the system named is broad leaf weeds (Lindernia pyxidaria and Monochoria vaginalis). Put plainly: Test Example 2: herbicidal effect test by treatment during growing period in paddy rice cultivation (seven days after seeding). Conditions: 120 g/10a active ingredient, assessed 14 days after treatment, dry weight vs untreated area. In short, it runs like this: (§3)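 Greenhouse flooded-pot test, seeds sown in puddled paddy soil; emulsion applied into water 7 d after seeding, 120 g a.i./10 a. Dry-weight-based herbicidal rate at 14 d, n=2.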

Assay [10] concerns Echinochloa crus-galli. The assay is described as above. Conditions: 120 g/10a active ingredient, assessed 14 days after treatment, dry weight vs untreated area. Put shortly:
as §3

For assay [11], the system named is Scirpus juncoides. The assay is described as above. Conditions: 120 g/10a active ingredient, assessed 14 days after treatment, dry weight vs untreated area. In short, it runs like this: as §3
Assay [12] deals with broad leaf weeds (Lindernia pyxidaria and Monochoria vaginalis). Put plainly: Test Example 1: herbicidal effect test by treatment of rice paddy soil (immediately after seeding). Conditions: 120 g/10a active ingredient, dry weight vs untreated area, 14 days after treatment. In short, it runs like this: (§4)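 Flooded paddy pot test in a glass greenhouse: emulsion diluted in water, dropped at 120 g a.i. per 10 ares just after sowing, water depth kept about 3 cm. Dry-weight reduction relative to untreated plants is scored at 14 days.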

The test system of assay [13] is Echinochloa crus-galli. The assay is described as above. Conditions: 120 g/10a active ingredient, dry weight vs untreated area, 14 days after treatment. In short, it runs like this: as §4
In assay [14] the test system is Scirpus juncoides. The description is as above. Conditions: 120 g/10a active ingredient, dry weight vs untreated area, 14 days after treatment. In short, it runs like this:
as §4

Molecules are shown by their SMILES.

Take `CC(=O)N(c1ccccc1Cc1c(C)n(CC(C)(C)C)oc1=O)S(=O)(=O)C(F)(F)F` [Compound 1-298]: in assay [1], the “herbicidal effect (herbicidal rate), Chenopodium album” value (shortened to “herbicidal effect … Chenopodium album”) is given as 40%. Moreover, the “herbicidal effect (herbicidal rate), southern crabgrass” value (shortened to “herbicidal effect … southern crabgrass”) in assay [2] turned out to be 90%. Moreover, the “herbicidal effect (herbicidal rate), Echinochloa crus-galli” value in assay [3] was 90%. Moreover, the “herbicidal effect (herbicidal rate), Amaranthus viridis” value (“herbicidal effect … Amaranthus viridis” below) in assay [4] was found to be 40%. Moreover, in assay [5], the “herbicidal rate, Chenopodium album” value was 90%. The “herbicidal rate, southern crabgrass” value in assay [6] came to 90%. The “herbicidal rate, Echinochloa crus-galli” value in [7] is 90%. Moreover, in assay [8], the “herbicidal rate, Amaranthus viridis” value turned out to be 90%. Further, the “Herbicidal rate (%) Lindernia pyxidaria” value in [9] and in assay [12] was 90% throughout. Besides, the “Herbicidal rate (%) Monochoria vaginalis” value in assay [9] and in assay [12] was 90% each time. The “Herbicidal rate (%) Echinochloa crus-galli” value in [10] and in [13] was 90% throughout. The “Herbicidal rate (%) Scirpus juncoides” value in [11] and in assay [14] was 90% in each case.

With `CCCC(C)n1oc(=O)c(Cc2ccccc2N(C(C)=O)S(=O)(=O)C(F)(F)F)c1C` (centres unmarked) [Compound 1-299], the “herbicidal effect … Chenopodium album” value in assay [1] was found to be 90%. In assay [2], the “herbicidal effect … southern crabgrass” value is recorded as 80%. The “herbicidal effect (herbicidal rate), Echinochloa crus-galli” value in [3] is recorded as 90%. In addition, in [4], the “herbicidal effect … Amaranthus viridis” value was found to be 40%. Also, the “herbicidal rate, Chenopodium album” value in assay [5] was 40%. Besides, in assay [6], the “herbicidal rate, southern crabgrass” value came out at 80%. Also, the “herbicidal rate, Echinochloa crus-galli” value in [7] is given as 90%. For the same compound, in assay [8], the “herbicidal rate, Amaranthus viridis” value stood at 70%. Moreover, the “Herbicidal rate (%) Lindernia pyxidaria” value in assay [9] is listed as 60%; in assay [12], 100%. For the same compound, the “Herbicidal rate (%) Monochoria vaginalis” value in assay [9] was 70%; in [12] it was 80%. Also, the “Herbicidal rate (%) Echinochloa crus-galli” value in [10] and in [13] was 100% each time. For the same compound, the “Herbicidal rate (%) Scirpus juncoides” value in assay [11] and in assay [14] was 90% in each case.

On to `CCC(C)Cn1oc(=O)c(Cc2ccccc2N(C(C)=O)S(=O)(=O)C(F)(F)F)c1C` (centres unmarked) [Compound 1-300], for which the “herbicidal effect … Chenopodium album” value in assay [1] is 60%. In addition, the “herbicidal effect … southern crabgrass” value in assay [2] was found to be 90%. Moreover, in assay [3], the “herbicidal effect (herbicidal rate), Echinochloa crus-galli” value was found to be 90%. The “herbicidal effect … Amaranthus viridis” value in [4] is reported as 70%. Also, the “herbicidal rate, Chenopodium album” value in assay [5] is reported as 60%. For the same compound, the “herbicidal rate, southern crabgrass” value in [6] was 100%. Further, the “herbicidal rate, Echinochloa crus-galli” value in [7] is recorded as 90%. Besides, the “herbicidal rate, Amaranthus viridis” value in [8] was determined as 80%. Besides, the “Herbicidal rate (%) Lindernia pyxidaria” value worked out at 70% in [9] and 80% in assay [12]. Also, the “Herbicidal rate (%) Monochoria vaginalis” value in [9] is given as 90%; in assay [12], 70%. For the same compound, the “Herbicidal rate (%) Echinochloa crus-galli” value in assay [10] and in assay [13] was 100% in each case. Further, the “Herbicidal rate (%) Scirpus juncoides” value in [11] worked out at 80%; in assay [14], 90%.

On to `COCC(C)n1oc(=O)c(Cc2ccccc2N(C(C)=O)S(=O)(=O)C(F)(F)F)c1C` (centres unmarked) [Compound 1-304], for which the “herbicidal effect … Chenopodium album” value in assay [1] turned out to be 40%. The “herbicidal effect … southern crabgrass” value in assay [2] turned out to be 90%. Further, the “herbicidal effect (herbicidal rate), Echinochloa crus-galli” value in assay [3] amounted to 90%. The “herbicidal effect … Amaranthus viridis” value in assay [4] is listed as 40%. Moreover, in assay [5], the “herbicidal rate, Chenopodium album” value turned out to be 90%. For the same compound, the “herbicidal rate, southern crabgrass” value in assay [6] is listed as 90%. Also, in assay [7], the “herbicidal rate, Echinochloa crus-galli” value is listed as 90%. In assay [8], the “herbicidal rate, Amaranthus viridis” value was found to be 90%. Also, the “Herbicidal rate (%) Lindernia pyxidaria” value in assay [9] and in assay [12] was 90% each time. The “Herbicidal rate (%) Monochoria vaginalis” value in assay [9] and in assay [12] was 90% throughout. For the same compound, the “Herbicidal rate (%) Echinochloa crus-galli” value in assay [10] and in assay [13] was 90% each time. Moreover, the “Herbicidal rate (%) Scirpus juncoides” value in assay [11] and in [14] was 90% each time.

As for `CSCCn1oc(=O)c(Cc2ccccc2N(C(C)=O)S(=O)(=O)C(F)(F)F)c1C` [Compound 1-305], in assay [1], the “herbicidal effect … Chenopodium album” value amounted to 40%. For the same compound, in assay [2], the “herbicidal effect … southern crabgrass” value was found to be 90%. Besides, the “herbicidal effect (herbicidal rate), Echinochloa crus-galli” value in assay [3] is 90%. In [4], the “herbicidal effect … Amaranthus viridis” value is recorded as 40%. In [5], the “herbicidal rate, Chenopodium album” value worked out at 90%. In addition, the “herbicidal rate, southern crabgrass” value in [6] worked out at 90%. The “herbicidal rate, Echinochloa crus-galli” value in [7] is 90%. Also, the “herbicidal rate, Amaranthus viridis” value in assay [8] is reported as 90%. The “Herbicidal rate (%) Lindernia pyxidaria” value in assay [9] and in assay [12] was 90% throughout. Further, the “Herbicidal rate (%) Monochoria vaginalis” value in assay [9] and in [12] was 90% each time. Moreover, the “Herbicidal rate (%) Echinochloa crus-galli” value in assay [10] and in assay [13] was 90% each time. Moreover, the “Herbicidal rate (%) Scirpus juncoides” value in assay [11] and in assay [14] was 90% each time.

Take `CC(=O)N(c1ccccc1Cc1c(C)n(C(C)c2ccccc2)oc1=O)S(=O)(=O)C(F)(F)F` (centres unmarked) [Compound 1-310]: the “herbicidal effect … Chenopodium album” value in assay [1] is given as 40%. The “herbicidal effect … southern crabgrass” value in [2] is recorded as 90%. Further, the “herbicidal effect (herbicidal rate), Echinochloa crus-galli” value in assay [3] is on record as 90%. Moreover, the “herbicidal effect … Amaranthus viridis” value in assay [4] is reported as 40%. For the same compound, the “herbicidal rate, Chenopodium album” value in assay [5] is 90%. For the same compound, the “herbicidal rate, southern crabgrass” value in assay [6] is given as 90%. For the same compound, the “herbicidal rate, Echinochloa crus-galli” value in [7] is 90%. Besides, the “herbicidal rate, Amaranthus viridis” value in [8] is on record as 90%. Further, the “Herbicidal rate (%) Lindernia pyxidaria” value in assay [9] and in assay [12] was 90% in each case. Further, the “Herbicidal rate (%) Monochoria vaginalis” value in [9] and in [12] was 90% in each case. The “Herbicidal rate (%) Echinochloa crus-galli” value in assay [10] and in [13] was 90% each time. The “Herbicidal rate (%) Scirpus juncoides” value in assay [11] and in [14] was 90% throughout.

Turning to `CCC(=O)N(c1ccccc1Cc1c(C)n(C(C)(C)C)oc1=O)S(=O)(=O)C(F)(F)F` [Compound 1-315], the “herbicidal effect … Chenopodium album” value in [1] worked out at 40%. The “herbicidal effect … southern crabgrass” value in assay [2] was 90%. Further, in assay [3], the “herbicidal effect (herbicidal rate), Echinochloa crus-galli” value is recorded as 90%. Moreover, the “herbicidal effect … Amaranthus viridis” value in [4] was 40%. Also, the “herbicidal rate, Chenopodium album” value in [5] is 90%. Besides, the “herbicidal rate, southern crabgrass” value in [6] is listed as 90%. In [7], the “herbicidal rate, Echinochloa crus-galli” value is recorded as 90%. Further, in [8], the “herbicidal rate, Amaranthus viridis” value amounted to 90%. Moreover, the “Herbicidal rate (%) Lindernia pyxidaria” value in assay [9] and in [12] was 90% each time. Further, the “Herbicidal rate (%) Monochoria vaginalis” value in assay [9] and in [12] was 90% in each case. Further, the “Herbicidal rate (%) Echinochloa crus-galli” value in assay [10] and in assay [13] was 90% each time. In addition, the “Herbicidal rate (%) Scirpus juncoides” value in assay [11] and in assay [14] was 90% each time.

On to `CCC(=O)N(c1ccccc1Cc1c(C)n(C(C)CC)oc1=O)S(=O)(=O)C(F)(F)F` (centres unmarked) [Compound 1-316], for which the “herbicidal effect … Chenopodium album” value in [1] is 40%. In [2], the “herbicidal effect … southern crabgrass” value is on record as 90%. In addition, the “herbicidal effect (herbicidal rate), Echinochloa crus-galli” value in assay [3] amounted to 90%. In [4], the “herbicidal effect … Amaranthus viridis” value is 40%. For the same compound, the “herbicidal rate, Chenopodium album” value in assay [5] is on record as 90%. Besides, the “herbicidal rate, southern crabgrass” value in [6] was 90%. In addition, the “herbicidal rate, Echinochloa crus-galli” value in [7] is recorded as 90%. For the same compound, in [8], the “herbicidal rate, Amaranthus viridis” value was determined as 90%. Besides, the “Herbicidal rate (%) Lindernia pyxidaria” value in assay [9] and in [12] was 90% each time. Besides, the “Herbicidal rate (%) Monochoria vaginalis” value in assay [9] and in [12] was 90% each time. Moreover, the “Herbicidal rate (%) Echinochloa crus-galli” value in assay [10] and in assay [13] was 90% each time. Further, the “Herbicidal rate (%) Scirpus juncoides” value in [11] and in [14] was 90% in each case.

Source of the values: patent US11109593B2, “Isoxazolin-5-one derivative and herbicide containing same as active ingredient” (HOKKO CHEMICAL INDUSTRY CO., LTD., priority 2017, dated 2021).
